Patent publication US20220160751A1, “METHODS OF TREATMENT OF DISEASES AND DISORDERS ASSOCIATED WITH INCREASED TET LEVEL, INCREASED H19 LEVEL, INCREASED LEVEL OF TGF SIGNALING, OR ANY COMBINATION THEREOF” (YALE UNIVERSITY, priority 2019, published 2022)

Assays:
HUVECs = experiment: RT-qPCR and Western blot of gene expression in HUVECs; type: cell-based, human; details: for H19 expression (RT-qPCR): overnight treatment vs vehicle
Procedure: HUVECs (Lonza, CC-2517) were maintained in a growth medium composed of endothelial basal medium (EBM-2, CC-3156) supplemented with EGM-2 MV BulletKit (CC-4147, Lonza). Cells were used between passages P2-P5. For cytokine treatment, cells were incubated overnight with indicated concentrations of TNF-α, TNF-α plus IL-1β, or Hcy in endothelial basal medium. Cells were transfected in a 24-well plate scale. To prepare siRNA transfection solution for each well, 10 pmol of siCon, siH19, or siTET1 were mixed with 25 μl of OPTI-MEM by gentle pipetting. In parallel, 1 μl of Lipofectamine 3000 was mixed with 25 μl of OPTI-MEM. Following 5 min of incubation at RT, the two were mixed by gentle pipetting and incubated for 10 min at RT to allow siRNA/lipid complexes to form. At the end of incubation, the 50 μl of transfection solution was used to resuspend cell pellet (3×10^4 cells/well). After incubation at room temperature (RT) for 10 min, growth medium was added at a ratio of 1:9 (1 volume of transfection solution/9 volumes of growth medium) and the cell suspension was transferred to a culture plate. For cytokine treatment combined with H19 knockdown, cells were transfected with siCon or siH19 for 24 h, followed by addition of TNF-α at a final concentration of 10 ng/ml for an additional 24 h before RNA extraction. For iLet 7 rescue experiments, 10 pmol of siCon+iCon, iCon+siH19, or siH19+iLet7 were used for each well of 3×10^4 cells. Forty-eight hours after the transfection, RNA and protein were extracted for analysis.
To prepare DNA/lipid complexes for pH19/pTET1 overexpression (FIG. 23) or pTET1 overexpression rescue (FIG. 22) experiments, empty vector (0.5 μg), pH19 ([…]), or pTET1 (0.75 μg) were mixed with 1 μl of P3000 in 25 μl of OPTI-MEM by gentle pipetting. In parallel, 0.75 μl of Lipofectamin 3000 was mixed with 25 μl of OPTI-MEM. The contents in the two tubes were mixed by gentle pipetting and incubated at RT for 5 min. The resulting DNA/lipid complexes (50 μl) were added to one well of cells (8×10^4) which had been seeded in a 24-well plate in growth medium the night before. Following incubation at RT for 10 min, 300 μl of OPTI-MEM was added and cells were incubated in a tissue culture incubator for 4-6 h. […]
HUVECs in 24-well plates were dissociated with 0.25% trypsin. […] Bands on Western blot gels were quantified using ImageJ. […]
Total RNAs were extracted using PureLink RNA Mini Kit (Ambion, catalog number 12183018A). cDNA was synthesized using PrimeScript RT Reagent Kit (TAKARA, RR037A) in a 20 μl reaction containing 0.5-1 μg of total RNA. Real-time quantitative PCR was performed in a 15 μl reaction containing 0.5-1 μl of cDNA using iQSYBRGreen (Bio-Rad) in a Bio-Rad iCycler. […]

[1] = tested on: UtLM and ht-UtLM leiomyoma cells; experiment: RT-qPCR and Western blot of gene expression in leiomyoma cells; type: cell-based, human; details: ht-UtLM cells, 24 h, 10^−8M
Source text: Antibodies for TET3 (GeneTex, GTX121453; used at a dilution of 1/500), TGFBR2 (Abcam, ab184948; used at a dilution of 1/1000), TSP1 (Abcam, ab85762; used at a dilution of 1/500), MED12 (Novus Biological, NB100-2357; used at a dilution of 1/500), HMGA2 (Proteintech, 20795-1-AP; used at a dilution of 1/500), GRAF1 (Cell Signaling, 8802; used at a dilution of 1/500), SPARC (Cell Signaling, 8725; used at a dilution of 1/500), COL3A1 (LS-Bio, LS-C159386; used at a dilution of 1/1000), COL4A1 (LS-Bio, LS-C100552; used at a dilution of 1/500), COL5A2 (Origene, TA809611; used at a dilution of 1/500) and GAPDH (Abcam, ab128915; used at a dilution of 1/10000) were purchased. Human H19 siRNA (siH19) and control siRNA (siCon) were previously described (Ghazal S et al., 2015, EMBO Mol Med 7:996-1003). siTET3 (Ambion, 4392420/s47239), estradiol ([…], Sigma), and progesterone ([…], Sigma) were purchased. Estradiol and progesterone were dissolved in DMSO and used at a final concentration of 10^-8M. ht-UtLM cells tested negative for mycoplasma contamination were maintained in MEM (Sigma, #M3024) supplemented with 20% fetal bovine serum, 1×MEM Vitamin Solution (Invitrogen #11120-052), 1×MEM Amino Acids Solution (Invitrogen, #11130-051), and 1×MEM Non-Essential Amino Acids (Invitrogen #11140-050). Primary UtLM-1 and UtLM-2 cells were maintained in DMEM (Gibco, #10567014) supplemented with 20% fetal bovine serum, and 1% penicillin/streptomycin, 1% amphotericin B. All cells were transfected in a 24-well plate scale. To prepare siRNA transfection solution for each well, 10 pmol (5 pmol for primary cells) of siCon, siH19, or siTET3 were mixed with 25 μl of OPTI-MEM by gentle pipetting. In parallel, 1 μl of Lipofectamine 3000 was mixed with 25 μl of OPTI-MEM. Following 5 min of incubation at room temperature, the two were mixed by gentle inverting and incubated for 10 min at room temperature to allow siRNA/lipid complexes to form. At the end of incubation, the 50 μl of transfection solution was used to re-suspend the cell pellet (3×10^4 cells). After incubation at room temperature for 10 min, growth medium was added at a ratio of 1:9 (1 volume of transfection solution/9 volumes of growth medium), and the cell suspension was transferred to a new culture dish. After overnight incubation in a tissue culture incubator, the medium was replaced with fresh growth medium. For iLet 7 rescue experiments, 10 pmol of siCon/siH19 and 10 pmol of iCon/iLet7 were used for each well of 3×10^4 cells. RNA, genomic DNA, and protein were extracted and analyzed at the indicated time points following transfection.

[2] = tested on: Hnf4a P2 and P1 promoters; experiment: ChIP-qPCR and QMSP of Hnf4a promoters in mouse hepatocytes; type: cell-based
Procedure: Genomic DNA was extracted from mouse primary hepatocytes grown in 12-well plates using Quick-gDNA MicroPrep (Zymo Research Corporation, D3021) according to the manufacturer's instructions. For bisulfite treatment, 480 ng of DNA was used for each column using EZ DNA Methylation-Gold Kit (Zymo, D5006). 100 μl of elution buffer was used to elute DNA from each column. Real-time quantitative PCR was performed in a 15 μl reaction containing 5 μl of the eluted DNA using iQSYBRGreen in a Bio-Rad iCycler. Two sets of PCR primers were designed: one for unmethylated and one for methylated DNA sequences. The PCR primers for methylated DNA were used at a final concentration of 0.6 μM in each PCR reaction. PCR was performed by initial denaturation at 95° C. for 5 min, followed by 40 cycles of 30 sec at 95° C., 30 sec at 60° C., and 30 sec at 72° C. Specificity was verified by melting curve analysis. The threshold cycle (Ct) values of each sample were used in the post-PCR data analysis. The ratio of methylated versus unmethylated DNA sequences are presented.
Experiments were performed in a 12-well plate scale using the Pierce Agarose ChIP Kit (Thermo Scientific, 26156) according to the manufacturer's instructions with minor modifications. Briefly, agarose beads were used to pre-bind with antibodies (anti-TET3, anti-Ser-5(P)-RNAP, or pre-immune IgGs as negative controls) overnight at 4° C. The next day, hepatocytes were crosslinked with 1% formaldehyde at room temperature for 10 min, and the reaction was stopped by 1×glycine. ChIPs were carried out overnight at 4° C. Levels of ChIP-purified DNA were determined with qPCR (see Table 1 for primer sequences). The relative enrichments of the indicated DNA regions were calculated using the Percent Input Method according to the manufacturer's instructions and are presented as % input.

[3] = tested on: primary human hepatocytes; experiment: qPCR of gene expression in primary human hepatocytes; type: cell-based; details: glucagon 20 nM vs vehicle
Procedure: Mouse primary hepatocytes were prepared as previously described (Zhang N et al., 2018, JCI Insight 3:e120304). Cells were maintained in Williams' Medium (GIBCO, 12551) with 5% FBS, 1% 1 M HEPES buffer (GIBCO, 15630-080), 1% L-Glutamine (GIBCO, 25030-081), 1% SPA (GIBCO, 15240-062), 4 mg/L insulin (GIBCO, 12585-014) and 1 μM dexamethasone (Sigma, D4902). For TET3 overexpression experiments, freshly isolated mouse primary hepatocytes were seeded in 12-well collagen 1-coated plates (BD Biosciences Discovery Labware) at 4×10^5 cells/well and infected with Ad-GFP or Ad-TET3 at 4,000 gc/cell at 3 h after seeding. For TET3 or HNF4α P2 isoform knockdown experiments, cells seeded in 12-well plates were infected with AAV-scr, AAV-siTET3, or AAV-siP2 at 6,000 gc/cell at 3 h after seeding. Medium was changed the next day and glucagon was added at a final concentration of 20 nM. Glucose production assays were carried out at 60 h after infection. […]
Total RNAs were extracted from liver or pancreas tissues or from primary hepatocytes using PureLink RNA Mini Kit. cDNA was synthesized using PrimeScript RT Reagent Kit in a 20 μl reaction containing 0.5-1 μg of total RNA. Real-time quantitative PCR was performed in a 15 μl reaction containing 0.5-1 μl of cDNA using iQSYBRGreen in a Bio-Rad iCycler. […]

[4] = tested on: mouse primary hepatocytes; experiment: qPCR and immunoblotting of gene expression in mouse primary hepatocytes; type: cell-based
Procedure: Mouse primary hepatocytes were prepared as previously described (Zhang N et al., 2018, JCI Insight 3:e120304). Cells were maintained in Williams' Medium (GIBCO, 12551) with 5% FBS, 1% 1 M HEPES buffer (GIBCO, 15630-080), 1% L-Glutamine (GIBCO, 25030-081), 1% SPA (GIBCO, 15240-062), 4 mg/L insulin (GIBCO, 12585-014) and 1 μM dexamethasone (Sigma, D4902). For TET3 overexpression experiments, freshly isolated mouse primary hepatocytes were seeded in 12-well collagen 1-coated plates (BD Biosciences Discovery Labware) at 4×10^5 cells/well and infected with Ad-GFP or Ad-TET3 at 4,000 gc/cell at 3 h after seeding. For TET3 or HNF4α P2 isoform knockdown experiments, cells seeded in 12-well plates were infected with AAV-scr, AAV-siTET3, or AAV-siP2 at 6,000 gc/cell at 3 h after seeding. Medium was changed the next day and glucagon was added at a final concentration of 20 nM. Glucose production assays were carried out at 60 h after infection. Human primary hepatocytes (M00995, Millipore, Sigma) were purchased, thawed, and maintained in InVitroGRO™ CP Medium (Sigma-Aldrich, Z990003) containing 2% Torpedo™ Antibiotic Mix. The cells were seeded in 12-well plates coated with collagen 1 (Millipore, 08-115). Infection of AAV-scr, AAV-sihTET3, and AAV-sihP2 were performed the next day after cell thawing and followed the same dosing protocol for the mouse primary hepatocytes.
Total RNAs were extracted from liver or pancreas tissues or from primary hepatocytes using PureLink RNA Mini Kit. cDNA was synthesized using PrimeScript RT Reagent Kit in a 20 μl reaction containing 0.5-1 μg of total RNA. Real-time quantitative PCR was performed in a 15 μl reaction containing 0.5-1 μl of cDNA using iQSYBRGreen in a Bio-Rad iCycler. PCR was performed by initial denaturation at 95° C. for 5 min, followed by 40 cycles of 30 sec at 95° C., 30 sec at 60° C., and 30 sec at 72° C. Specificity was verified by melting curve analysis. The Ct values of each sample were used in the post-PCR data analysis. Gene expression levels were normalized against house-keeping genes GAPDH and RPLP0.
Primary hepatocytes in 12-well plates were dissociated with 0.25% trypsin. After […] centrifugation at 1000 rpm for 5 min, supernatants were discarded and cell pallets were homogenized in 2×SDS-sample buffer (100 ul/well), followed by heating at 100° C. for 5 min, with occasional vortexing. For liver tissue samples, 5 mg of tissues were minced and 200 μl of 2× SDSsample buffer was added, followed by homogenization on ice using a sonicator (Qsonica, Q125-110). Homogenized samples were heated at 100° C. for 5 min and then centrifuged at 12,000 g for 5 min to remove insoluble materials before loading onto 12% SDS gels (5 μl/well), followed by Western blot analysis. Bands on Western blot gels were quantified using ImageJ. GAPDH was used as a loading control.

[5] = glucagon-stimulated versus vehicle treated hepatocytes

## N[C@@H](CCS)C(=O)O [Hcy, L-Homocysteine]
HUVECs
  H19 expression (RT-qPCR): dose-dependently upregulates H19

## CC(=O)[C@H]1CC[C@H]2[C@@H]3CCC4=CC(=O)CC[C@]4(C)[C@H]3CC[C@]12C [progesterone]
[1]
  H19 expression: did not affect H19 expression

## IL-1β: Recombinant human IL-1β (R&D Systems, 201-LB), combined with TNF-α
HUVECs
  H19 expression (RT-qPCR): additive effect

## TNF-α
HUVECs; TNF-α 10 ng/ml 24 h vs vehicle
  expression of TET1, TGFBR2 and TSP1 (RT-qPCR): upregulated expression of TET1, TGFBR2 and TSP1
HUVECs
  H19 expression (RT-qPCR): stimulates H19 expression in a dose-dependent manner

## glucagon
[2]; glucagon 20 nM 24 h vs vehicle
  binding of TET3 to Hnf4a promoters (ChIP-qPCR): dramatically increased binding of TET3 to P2 but not P1
  methylation of P2 (QMSP): significantly decreased methylation of P2
[2]; [5]
  RNAP association with P1 (ChIP): no change in RNAP association with P1
  enrichment in RNAP at the P2 promoter (ChIP): approximately 5 fold
[3]
  HNF4α expression from P2 and P1: stimulated expression from P2 (but not P1)
  expression of PCK1 and G6PC: increased expression of PCK1 and G6PC
[4]; H19 KO hepatocytes, glucagon 20 nM 24 h
  HNF4α P2 usage (qPCR): failed to do so
[4]; H19 KO primary hepatocytes, glucagon 20 nM 24 h
  Tet3 expression (qPCR): no longer stimulated Tet3 expression
[4]; WT hepatocytes, glucagon 20 nM vs vehicle
  Pck1 and G6pc expression (qPCR): increased expression of Pck1 and G6pc
[4]; WT primary hepatocytes
  HNF4α P2 and P1 isoform expression (qPCR): increased P2 usage in WT hepatocytes
[4]; WT primary hepatocytes, glucagon 20 nM 24 h or AAV-H19 48 h without glucagon
  H19 and Tet3 expression (qPCR): readily induced
